Reference: patent US7151191B2, “Compounds and compositions for delivering active agents” (Emisphere Technologies, Inc., priority 2000, dated 2006)

For `O=C(O)CCCCCCCOc1ccc(Cl)cc1NC(=O)c1ccccc1O` [Compound 1, 8-[(N-Salicyloyl-2-amino-4-chloro)phenoxyl]octanoic acid], the melting point was 152 to 153 °C. `O=C(O)CCCCOc1ccc(Cl)cc1NC(=O)c1ccccc1O` [Compound 2] showed a melting point of 166 to 169 °C. `O=C(O)CCCOc1ccc(Cl)cc1NC(=O)c1ccccc1O` [Compound 3] gave a melting point of 231 to 234 °C. For `O=C(O)CCCCCCCOc1ccccc1NC(=O)c1ccccc1O` [Compound 4], the melting point was 122 to 124 °C. In the case of `O=C(O)CCCCOc1ccccc1NC(=O)c1ccccc1O` [Compound 5], the melting point is reported as 147 to 149 °C. Work on `COc1cccc(C(=O)Nc2ccc(OCCC(=O)O)cc2)c1OC` [Compound 7] yielded a melting point of 135 to 137 °C. Work on `O=C(O)CCOc1ccc(NC(=O)c2ccccc2O)cc1` [Compound 8, 3-(4-salicyloylamino)phenoxy propionic acid] yielded a melting point of 165 to 167 °C. Compound `COc1ccccc1C(=O)Nc1ccc(OCCC(=O)O)cc1` [Compound 9] has a melting point of 154 to 158 °C. `O=C(O)COc1ccc(CCCNC(=O)c2ccccc2O)cc1` [Compound 10] showed a melting point of 124 to 126.5 °C.
